Reference: patent publication US7091351B2, “Vanadium compounds for treating cancer” (Parker Hughes Institute, priority 1998, dated 2006)

Legend:
Format in all cases: cell-based, human
[1] = test system: U266BL multiple myeloma cells; assay: MTT cytotoxicity assay of oxovanadium(IV) compounds, U266BL; conditions: 48 hr
Protocol: (§1) The cytotoxicity of oxovanadium (W) complexes listed in Table 6 were tested against 9 different human cancer cell lines was performed using the MTT (3-[4,5-dimethylthiazol-2-yl]-2,5-diphenyl tetrazolium bromide) assay (Boehringer Mannheim Corp., Indianapolis, Ind.) as described previously (20). Briefly, exponentially growing tumor cells were seeded into a 96-well plate at a density of 4×10^4cells/well and incubated with medium containing the oxovanadium(IV) compounds concentrations ranging from 0.1 to 250 μM for 48 hours at 37° C. in a humidified 5% CO2 atmosphere. Triplicate wells were used for each treatment. To each well, 10 μl of MTT (0.5 mg/ml final concentration) was added and the plates were incubated at 37° C. for 4 hours to allow MTT to form formazan crystals by reacting with metabolically active cells . The formazan crystals were solubilized overnight at 37° C. in a solution containing 10% SDS in 0.01 M HCl. The absorbence of each well was measured in a microplate reader (Labsystems) at 540 nm and a reference wavelength of 690 nm. To translate the OD540 values into the number of live cells in each well, the OD540 values were compared to those on standard OD540—versus—cell number curves generated for each cell line. The percent survival was calculated using the formula: % survival=Live cell number[test]/Live cell number [control]×100. The IC50 values were calculated by non-linear regression analysis using an Graphpad Prism software version 2.0 (Graphpad Software, Inc., San Diego, Calif.).

[2] = test system: 833-K testicular cancer cells; assay: Cytotoxic activity of oxovanadium(IV) compounds, 833-K; conditions: read-out: Cytotoxic Activity 833-K
Protocol: as §1

[3] = test system: NTD1 testicular cancer cells; assay: Cytotoxic activity of oxovanadium(IV) compounds, NTD1; conditions: read-out: Cytotoxic Activity NTD1
Protocol: as §1

U373 glioblastoma cells = assay: Cytotoxic activity of oxovanadium(IV) compounds, U373; conditions: read-out: Cytotoxic Activity U373
Protocol: as §1

NALM-6 leukemia cells [4] = assay: Mitochondrial transmembrane potential, DiIC1 staining, flow cytometry
Protocol: […] Mitochondrial membrane potential (ΔΨm) was measured using two dyes including a lipophollic cation 5,5′,6,6′-tetrachloro-1,1′,3,3′-tetraethlybenzimidazolylcarbocyanine iodide (JC-1; Molecular probes, Eugene, Oreg.) and a cyanine dye, 1,1′,3,3,3′,3′-hexamethylindodicarbocyanine iodide [DiIC1(5); Molecular probes] as earlier described (22). JC-1 can enter the cells, and selectively mitochondria, and has been used to assess ΔΨm in a variety of studies (23,24). JC-1 is a monomer at 527 nm after being excited at 490 nm; with polarization of ΔΨm, J-aggregates are formed that shift emission to 590 nm (23, 24). This can be detected on a flow cytometer by assessing the green signal (at 527 nm) and green-orange signal (at 590 nm) simultaneously, creating an index of the number of cells polarized and depolarized mitochondria. The treated and control cells were washed and plated in a 6-well plate at 1×10^6 cells in fresh medium. JC-1 was added at a concentration of 10 μg/ml, and cells were incubated for 10 min in the dark at room temp. Cells were then washed twice with ice-cold PBS and immediately analyzed using Becton Dickinson (San Jose, Calif.) Calibur flow cytometer. At least 2×10^3 cells were analyzed to determine the percentage of cells with polarized and depolarized mitochondria. DiIC1(5), a cyanine dye is amphioatheic and cationic that concentrate in energized mitochondria and has been used in a variety of studies to measure the mitochondrial membrane potential (25–27). NALM-6 cells were stained with DiIC1(5) at 40 nM concentration for 30 min in the dark as described for JC-1. The cells were analyzed using Vantage Becton Dickinson cell sorter equipped with HeNe laser with excitation at 635 nm and the fluorescence was collected at 666 nm.

NALM-6 leukemia cells [5] = assay: Mitochondrial transmembrane potential, JC-1 staining, flow cytometry
Protocol: To measure the changes in mitochondria, NALM-6 cells were incubated with compound 29 at concentrations ranging from 0.1 μM to 1 μM for 24 hr, 48 hr, 72 hr or 96 hr, stained with specific fluorescent dyes and analyzed with flow cytometer. Mitochondrial membrane potential (ΔΨm) was measured using two dyes including a lipophollic cation 5,5′,6,6′-tetrachloro-1,1′,3,3′-tetraethlybenzimidazolylcarbocyanine iodide (JC-1; Molecular probes, Eugene, Oreg.) and a cyanine dye, 1,1′,3,3,3′,3′-hexamethylindodicarbocyanine iodide [DiIC1(5); Molecular probes] as earlier described (22). JC-1 can enter the cells, and selectively mitochondria, and has been used to assess ΔΨm in a variety of studies (23,24). JC-1 is a monomer at 527 nm after being excited at 490 nm; with polarization of ΔΨm, J-aggregates are formed that shift emission to 590 nm (23, 24). This can be detected on a flow cytometer by assessing the green signal (at 527 nm) and green-orange signal (at 590 nm) simultaneously, creating an index of the number of cells polarized and depolarized mitochondria. The treated and control cells were washed and plated in a 6-well plate at 1×10^6 cells in fresh medium. JC-1 was added at a concentration of 10 μg/ml, and cells were incubated for 10 min in the dark at room temp. Cells were then washed twice with ice-cold PBS and immediately analyzed using Becton Dickinson (San Jose, Calif.) Calibur flow cytometer. At least 2×10^3 cells were analyzed to determine the percentage of cells with polarized and depolarized mitochondria. DiIC1(5), a cyanine dye is amphioatheic and cationic that concentrate in energized mitochondria and has been used in a variety of studies to measure the mitochondrial membrane potential (25–27). NALM-6 cells were stained with DiIC1(5) at 40 nM concentration for 30 min in the dark as described for JC-1. The cells were analyzed using Vantage Becton Dickinson cell sorter equipped with HeNe laser with excitation at 635 nm and the fluorescence was collected at 666 nm.

NALM-6 cells = assay: In situ detection of apoptosis, confocal microscopy, NALM-6; conditions: 48 hours after treatment
Protocol: (§2) Exponentially growing cells were seeded in 6-well tissue culture plates and incubated with fresh medium containing compounds. […] The cells were fixed in 2% paraformaldehyde, washed with PBS and pelleted by centrifuging the tubes at 1000 rpm for 5 min. Cells pellets were resuspended in 50 μl of PBS, transferred to superforst plus slides and allowed to attach for 15 min. The cells were permeabilized with 0.1% triton X-100 in 0.1% citrate buffer and incubated for 1 hr at 37° C. with the reaction mixture containing terminal deoxynucleotidyl transferase (TdT) and fluorescein isothiocyanate (FITC)-conjugated dUTP. Cells were washed with PBS to remove unbound reagents and the coverslips were mounted onto slides with Vectashield containing propidium iodide (Vector Labs, Burlingame, Calif.) and slides were viewed with a confocal laser scanning microscope. […] In control reactions, the TdT enzyme was omitted from the reaction mixture.

HS-SULTAN cells = assay: In situ detection of apoptosis, confocal microscopy, HS-SULTAN; conditions: 48 hours after treatment
Protocol: as §2

EC50 (NALM-6 leukemia cells [4]; 24 hr treatment, read-out: average EC50 for depolarization of mitochondria (decreased DiIC1 staining), 24 hr): 3600 nM
EC50 (NALM-6 leukemia cells [4]; 48 hr treatment, read-out: average EC50 for depolarization of mitochondria (decreased DiIC1 staining), 48 hr): 300 nM
EC50 (NALM-6 leukemia cells [4]; 72 hr treatment, read-out: average EC50 for depolarization of mitochondria (decreased DiIC1 staining), 72 hr): 80 nM
EC50 (NALM-6 leukemia cells [5]; 24 hr treatment, read-out: average EC50 for depolarization of mitochondria (JC-1 red/orange fluorescence), 24 hr): 4200 nM
EC50 (NALM-6 leukemia cells [5]; 48 hr treatment, read-out: average EC50 for depolarization of mitochondria (JC-1 red/orange fluorescence), 48 hr): 500 nM
Substance: bis(4,7-dimethyl-1,10-phenanthroline)sulfatooxovanadium(IV) [Compound 29]
IC50 [1]: 500 ± 20 nM
IC50 [2]: 850 nM
IC50 [3]: 10800 nM
IC50 (U373 glioblastoma cells): 1800 nM
fraction of DiIC1-negative cells with depolarized mitochondria (NALM-6 leukemia cells [4]; 1 μM, 48 hours (vehicle 6.5%)): 91.5%
fraction of JC-1 red/orange fluorescence-positive cells, 48 hr (NALM-6 leukemia cells [5]; 500 nM, 48 hr (vehicle 98.6%)): 56.1%
fraction of JC-1 red/orange fluorescence-positive cells, 72 hr (NALM-6 leukemia cells [5]; 500 nM, 72 hr (vehicle 98.6%)): 8.4%
apoptotic nuclei (FITC-dUTP / propidium iodide), NALM-6 (NALM-6 cells): many apoptotic yellow nuclei
apoptotic nuclei (FITC-dUTP / propidium iodide), HS-SULTAN (HS-SULTAN cells): many apoptotic yellow nuclei
